{"source": "patent US9023882B2", "about": "“5-membered nitrogen containing heterocyclic derivatives and pharmaceutical compositions comprising the same” (Kissei Pharmaceutical Co., Ltd., priority 2007, dated 2015)", "molecular_target": "Xanthine oxidase (from bovine milk, Sigma) (Bos taurus (Bovine), UniProt P80457)", "sequence (P80457 whole entry)": "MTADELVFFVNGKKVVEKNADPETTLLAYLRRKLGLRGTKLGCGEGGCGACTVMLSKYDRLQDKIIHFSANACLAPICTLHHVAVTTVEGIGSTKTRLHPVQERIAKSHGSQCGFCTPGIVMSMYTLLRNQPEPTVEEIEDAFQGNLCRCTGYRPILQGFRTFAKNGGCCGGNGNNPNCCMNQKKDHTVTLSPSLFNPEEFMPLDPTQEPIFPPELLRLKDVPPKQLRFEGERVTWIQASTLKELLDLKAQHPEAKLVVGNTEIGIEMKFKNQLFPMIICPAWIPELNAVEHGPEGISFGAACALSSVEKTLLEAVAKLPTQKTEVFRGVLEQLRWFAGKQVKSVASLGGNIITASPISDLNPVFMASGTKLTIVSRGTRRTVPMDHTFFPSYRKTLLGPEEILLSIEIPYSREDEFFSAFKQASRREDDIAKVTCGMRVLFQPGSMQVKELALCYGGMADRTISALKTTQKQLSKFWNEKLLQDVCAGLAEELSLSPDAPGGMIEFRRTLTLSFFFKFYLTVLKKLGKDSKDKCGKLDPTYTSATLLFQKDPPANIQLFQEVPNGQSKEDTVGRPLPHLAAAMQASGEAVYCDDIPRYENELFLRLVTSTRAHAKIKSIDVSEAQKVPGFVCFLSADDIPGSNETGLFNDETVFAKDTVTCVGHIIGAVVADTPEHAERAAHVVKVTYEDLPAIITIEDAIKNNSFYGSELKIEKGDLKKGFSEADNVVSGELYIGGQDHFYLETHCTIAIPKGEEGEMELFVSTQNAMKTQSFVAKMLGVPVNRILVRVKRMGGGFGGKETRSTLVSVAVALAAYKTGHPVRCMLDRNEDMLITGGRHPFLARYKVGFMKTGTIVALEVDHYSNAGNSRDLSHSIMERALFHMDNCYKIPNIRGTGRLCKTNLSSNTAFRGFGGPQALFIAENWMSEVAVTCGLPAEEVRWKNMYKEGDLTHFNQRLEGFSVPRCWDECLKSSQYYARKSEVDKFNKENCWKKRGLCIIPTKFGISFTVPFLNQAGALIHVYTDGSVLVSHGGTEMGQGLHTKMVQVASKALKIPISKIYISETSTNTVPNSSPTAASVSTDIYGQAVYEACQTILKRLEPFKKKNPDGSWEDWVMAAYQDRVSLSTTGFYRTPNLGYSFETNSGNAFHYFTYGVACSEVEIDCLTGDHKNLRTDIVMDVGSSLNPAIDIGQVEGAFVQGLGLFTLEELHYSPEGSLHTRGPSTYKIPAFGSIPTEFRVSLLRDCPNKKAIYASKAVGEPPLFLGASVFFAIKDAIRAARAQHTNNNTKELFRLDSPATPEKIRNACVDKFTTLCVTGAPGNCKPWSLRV", "test": "Xanthine oxidase inhibitory activity", "type": "biochemical", "settings": "absorbance at 290 nm", "experimental": "(1) Preparation of Test Compounds\nTest compounds were dissolved in DMSO (Wako) at 40 mM concentration and then diluted to intended concentrations with phosphate-buffered saline (PBS).\n(2) Method for Measurement\nXanthine oxidase (from bovine milk, Sigma) was prepared with phosphate-buffered saline (PBS) at 0.02 units/mL, and then the solution was added to 96 well plates at 50 μL/well. In addition, test compounds diluted with PBS were added at 50 μL/well. Xanthine (Wako) at 200 μM prepared with PBS was added at 100 μL/well, and the reaction was conducted for 10 minutes at room temperature. Absorbance at 290 nm was measured using a microplate reader SpectraMax Plus 384 (Molecular device). The absorbance under a condition without xanthine is 0%, and control without test compounds is 100%. Fifty % inhibitory concentration of a test compound (IC50) was calculated (Tables 91 to 92). Ex. No in the table indicates Example number.", "key": {"[1]": {"settings": "0.02 units/mL, xanthine 200 μM, 10 minutes at room temperature"}}, "data": [{"smiles": "N#Cc1cn(-c2ccc(C(=O)O)cc2)cc1C(=O)N1CCCCC1", "note": "[Example 231]", "values": [{"measurement": "IC50", "setting": "[1]", "value": 7, "unit": "nM"}]}, {"smiles": "N#Cc1cn(-c2ccc(C(=O)O)cc2)cc1C(=O)N1CCOCC1", "note": "[Example 232]", "values": [{"measurement": "IC50", "setting": "[1]", "value": 26.9, "unit": "nM"}]}, {"smiles": "CC(C)COc1cn(-c2ccc(C(=O)O)cc2)cc1C#N", "note": "[Example 233]", "values": [{"measurement": "IC50", "setting": "[1]", "value": 2.3, "unit": "nM"}]}, {"smiles": "COCCOc1cn(-c2ccc(C(=O)O)cc2)cc1C#N", "note": "[Example 234]", "values": [{"measurement": "IC50", "setting": "[1]", "value": 4, "unit": "nM"}]}, {"smiles": "N#Cc1cn(-c2ccc(C(=O)O)cc2)cc1Cc1ccccc1", "note": "[Example 235]", "values": [{"measurement": "IC50", "setting": "[1]", "value": 8.6, "unit": "nM"}]}, {"smiles": "Cc1cn(-c2ccc(C(=O)O)cc2)cc1C#N", "note": "[Example 236]", "values": [{"measurement": "IC50", "setting": "[1]", "value": 81.2, "unit": "nM"}]}, {"smiles": "CCCc1cn(-c2ccc(C(=O)O)cc2)cc1C#N", "note": "[Example 238]", "values": [{"measurement": "IC50", "setting": "[1]", "value": 3.6, "unit": "nM"}]}, {"smiles": "CCCc1c(C#N)cn(-c2ccc(C(=O)O)cc2)c1C", "note": "[Example 239]", "values": [{"measurement": "IC50", "setting": "[1]", "value": 15, "unit": "nM"}]}, {"smiles": "CCCCc1cn(-c2ccc(C(=O)O)cc2)cc1C#N", "note": "[Example 240]", "values": [{"measurement": "IC50", "setting": "[1]", "value": 3.3, "unit": "nM"}]}, {"smiles": "CC(C)Cc1cn(-c2ccc(C(=O)O)cc2)cc1C#N", "note": "[Example 241]", "values": [{"measurement": "IC50", "setting": "[1]", "value": 3.6, "unit": "nM"}]}, {"smiles": "Cc1c(CC(C)C)c(C#N)cn1-c1ccc(C(=O)O)cc1", "note": "[Example 242]", "values": [{"measurement": "IC50", "setting": "[1]", "value": 9, "unit": "nM"}]}, {"smiles": "N#Cc1cn(-c2ccc(C(=O)O)cc2)cc1-c1ccco1", "note": "[Example 244]", "values": [{"measurement": "IC50", "setting": "[1]", "value": 3.6, "unit": "nM"}]}, {"smiles": "CCCCCc1cn(-c2ccc(C(=O)O)cc2)cc1C#N", "note": "[Example 245]", "values": [{"measurement": "IC50", "setting": "[1]", "value": 2.8, "unit": "nM"}]}, {"smiles": "CCCCCCc1cn(-c2ccc(C(=O)O)cc2)cc1C#N", "note": "[Example 246]", "values": [{"measurement": "IC50", "setting": "[1]", "value": 8.9, "unit": "nM"}]}, {"smiles": "CCCCCCCc1cn(-c2ccc(C(=O)O)cc2)cc1C#N", "note": "[Example 247]", "values": [{"measurement": "IC50", "setting": "[1]", "value": 8.9, "unit": "nM"}]}, {"smiles": "N#Cc1cn(-c2ccc(C(=O)O)cc2)cc1COCc1ccccc1", "note": "[Example 248]", "values": [{"measurement": "IC50", "setting": "[1]", "value": 11.9, "unit": "nM"}]}, {"smiles": "N#Cc1nn(-c2ccc(C(=O)O)cc2)cc1-c1ccc2c(c1)OCO2", "note": "[Example 249]", "values": [{"measurement": "IC50", "setting": "[1]", "value": 9.4, "unit": "nM"}]}, {"smiles": "N#Cc1cn(-c2ccc(C(=O)O)cc2)cc1-c1ccc2ccccc2c1", "note": "[Example 250]", "values": [{"measurement": "IC50", "setting": "[1]", "value": 25.6, "unit": "nM"}]}, {"smiles": "Cn1cc(-c2cn(-c3ccc(C(=O)O)cc3)cc2C#N)c2ccccc21", "note": "[Example 251]", "values": [{"measurement": "IC50", "setting": "[1]", "value": 23, "unit": "nM"}]}, {"smiles": "CC(C)n1cc(-c2cn(-c3ccc(C(=O)O)cc3)cc2C#N)c2ccccc21", "note": "[Example 252]", "values": [{"measurement": "IC50", "setting": "[1]", "value": 33.2, "unit": "nM"}]}, {"smiles": "N#Cc1cn(-c2ccc(C(=O)O)cc2)cc1-c1csc2ccccc12", "note": "[Example 253]", "values": [{"measurement": "IC50", "setting": "[1]", "value": 5.4, "unit": "nM"}]}, {"smiles": "N#Cc1cn(-c2ccc(C(=O)O)cc2)cc1-c1cccc2c1OC(F)(F)O2", "note": "[Example 254]", "values": [{"measurement": "IC50", "setting": "[1]", "value": 6.9, "unit": "nM"}]}, {"smiles": "N#Cc1cn(-c2ccc(C(=O)O)cc2)cc1-c1cccn1-c1ccccc1", "note": "[Example 255]", "values": [{"measurement": "IC50", "setting": "[1]", "value": 10.1, "unit": "nM"}]}, {"smiles": "N#Cc1cn(-c2ccc(C(=O)O)cc2)cc1-c1cccn1Cc1ccccc1", "note": "[Example 256]", "values": [{"measurement": "IC50", "setting": "[1]", "value": 15.2, "unit": "nM"}]}, {"smiles": "CCOc1cn(-c2ccc(C(=O)O)cc2)cc1C#N", "note": "[Example 257]", "values": [{"measurement": "IC50", "setting": "[1]", "value": 4.1, "unit": "nM"}]}, {"smiles": "N#Cc1cn(-c2ccc(C(=O)O)cc2)cc1CCc1ccco1", "note": "[Example 258]", "values": [{"measurement": "IC50", "setting": "[1]", "value": 3.9, "unit": "nM"}]}, {"smiles": "N#Cc1cn(-c2ccc(C(=O)O)cc2)cc1CCC1CCCO1", "note": "(stereo not shown) [Example 259]", "values": [{"measurement": "IC50", "setting": "[1]", "value": 4.7, "unit": "nM"}]}, {"smiles": "CN(C)/C=N/c1nn(-c2ccc(C(=O)O)cc2)cc1C#N", "note": "[Example 261]", "values": [{"measurement": "IC50", "setting": "[1]", "value": 5.3, "unit": "nM"}]}, {"smiles": "N#Cc1cn(-c2ccc(C(=O)O)cc2)nc1NC(=O)c1ccccc1", "note": "[Example 262]", "values": [{"measurement": "IC50", "setting": "[1]", "value": 3.1, "unit": "nM"}]}, {"smiles": "N#Cc1cn(-c2ccc(C(=O)O)cc2)nc1NC(=O)Cc1ccccc1", "note": "[Example 263]", "values": [{"measurement": "IC50", "setting": "[1]", "value": 4.6, "unit": "nM"}]}, {"smiles": "N#Cc1cn(-c2ccc(C(=O)O)c(O)c2)cc1-c1cccc(F)c1", "note": "[Example 265]", "values": [{"measurement": "IC50", "setting": "[1]", "value": 7.3, "unit": "nM"}]}, {"smiles": "COc1ccc(-c2cn(-c3ccc(C(=O)O)c(O)c3)cc2C#N)c(OC)c1", "note": "[Example 266]", "values": [{"measurement": "IC50", "setting": "[1]", "value": 10.4, "unit": "nM"}]}, {"smiles": "N#Cc1cn(-c2ccc(C(=O)O)c(O)c2)cc1-c1ccc(F)cc1F", "note": "[Example 267]", "values": [{"measurement": "IC50", "setting": "[1]", "value": 11.6, "unit": "nM"}]}, {"smiles": "COc1ccc(-c2cn(-c3ccc(C(=O)O)c(O)c3)cc2C#N)cc1F", "note": "[Example 268]", "values": [{"measurement": "IC50", "setting": "[1]", "value": 13.3, "unit": "nM"}]}, {"smiles": "Cc1ccc(-c2cn(-c3ccc(C(=O)O)c(O)c3)cc2C#N)cc1F", "note": "[Example 269]", "values": [{"measurement": "IC50", "setting": "[1]", "value": 23.4, "unit": "nM"}]}, {"smiles": "N#Cc1cn(-c2ccc(C(=O)O)c(O)c2)cc1-c1cccc(F)c1F", "note": "[Example 270]", "values": [{"measurement": "IC50", "setting": "[1]", "value": 24.2, "unit": "nM"}]}, {"smiles": "N#Cc1cn(-c2ccc(C(=O)O)c(O)c2)cc1-c1cc(F)cc(F)c1", "note": "[Example 271]", "values": [{"measurement": "IC50", "setting": "[1]", "value": 15.1, "unit": "nM"}]}, {"smiles": "Cc1cccc(C)c1-c1cn(-c2ccc(C(=O)O)c(O)c2)cc1C#N", "note": "[Example 272]", "values": [{"measurement": "IC50", "setting": "[1]", "value": 10.1, "unit": "nM"}]}, {"smiles": "Cc1ccc(-c2cn(-c3ccc(C(=O)O)c(O)c3)cc2C#N)c(C)c1", "note": "[Example 273]", "values": [{"measurement": "IC50", "setting": "[1]", "value": 14.6, "unit": "nM"}]}, {"smiles": "N#Cc1cn(-c2ccc(C(=O)O)c(O)c2)cc1-c1c(F)cccc1F", "note": "[Example 274]", "values": [{"measurement": "IC50", "setting": "[1]", "value": 5, "unit": "nM"}]}, {"smiles": "Cc1c(F)cccc1-c1cn(-c2ccc(C(=O)O)c(O)c2)cc1C#N", "note": "[Example 275]", "values": [{"measurement": "IC50", "setting": "[1]", "value": 7.2, "unit": "nM"}]}, {"smiles": "COc1ccc(-c2cn(-c3ccc(C(=O)O)c(O)c3)cc2C#N)c(C)c1", "note": "[Example 276]", "values": [{"measurement": "IC50", "setting": "100 μM xanthine final", "value": 7.7, "unit": "nM"}]}, {"smiles": "N#Cc1cn(-c2ccc(C(=O)O)c(O)c2)cc1-c1cc(F)ccc1F", "note": "[Example 277]", "values": [{"measurement": "IC50", "setting": "100 μM xanthine final", "value": 10.1, "unit": "nM"}]}]}
